Test: xn = mol fraction of the nth substance listed
Settings: 200 kPa, Liquid

NCCN [ethane-1,2-diamine] + O
Settings	mass density [kg/m3]
282.78 K, x2 = 0.3967	956.193
282.92 K, x2 = 0.2017	929.116
282.96 K, x2 = 0.301	942.071
283.11 K, x2 = 0.8936	1000.8
283.13 K, x2 = 0.1028	917.186
283.26 K, x2 = 0.5026	973.123
283.47 K, x2 = 0.7687	1005.97
283.55 K, x2 = 0	905.993
283.69 K, x2 = 0.6032	989.21
284.35 K, x2 = 0.7026	1001.48
292.62 K, x2 = 0.8936	996.472
292.67 K, x2 = 0.5026	964.635
292.85 K, x2 = 0.7026	994.548
292.93 K, x2 = 0.2017	919.983
292.93 K, x2 = 0.301	933.047
293.05 K, x2 = 0.1028	908.064
293.06 K, x2 = 0	897.168
293.09 K, x2 = 0.3967	946.948
293.24 K, x2 = 0.7687	998.968
293.29 K, x2 = 0.6032	980.744
301.58 K, x2 = 0.7026	987.238
302.39 K, x2 = 0.6032	972.594
302.4 K, x2 = 0	888.38
302.47 K, x2 = 0.7687	992.107
302.85 K, x2 = 0.3967	938.019
302.85 K, x2 = 0.5026	955.328
302.96 K, x2 = 0.301	923.821
302.97 K, x2 = 0.8936	991.261
302.99 K, x2 = 0.1028	898.81
303.1 K, x2 = 0.2017	910.588
311.86 K, x2 = 0.7026	978.33
312.55 K, x2 = 0.6032	963.3
312.59 K, x2 = 0.7687	984.36
312.67 K, x2 = 0	878.632
312.77 K, x2 = 0.5026	946.166
313 K, x2 = 0.301	914.5
313.02 K, x2 = 0.8936	985.719
313.11 K, x2 = 0.1028	889.308
313.14 K, x2 = 0.2017	901.221
313.98 K, x2 = 0.3967	927.719
322.34 K, x2 = 0.7687	976.647
322.65 K, x2 = 0.6032	953.972
322.72 K, x2 = 0.7026	968.66
322.86 K, x2 = 0.301	905.205
322.88 K, x2 = 0.5026	936.708
322.93 K, x2 = 0.2017	891.98
323.04 K, x2 = 0.1028	879.883
323.15 K, x2 = 0	868.618
323.15 K, x2 = 0.8936	979.69
323.75 K, x2 = 0.3967	918.543
332.41 K, x2 = 0.7026	960.004
332.77 K, x2 = 0.7687	968.171
332.78 K, x2 = 0	859.342
332.89 K, x2 = 0.5026	927.173
332.96 K, x2 = 0.301	895.557
333.02 K, x2 = 0.6032	944.229
333.1 K, x2 = 0.1028	870.208
333.11 K, x2 = 0.2017	882.167
333.38 K, x2 = 0.8936	973.322
333.53 K, x2 = 0.3967	909.227
342.6 K, x2 = 0.7687	959.937
342.64 K, x2 = 0.5026	917.789
342.77 K, x2 = 0	849.651
342.81 K, x2 = 0.3967	900.276
342.98 K, x2 = 0.301	885.862
343.04 K, x2 = 0.1028	860.531
343.08 K, x2 = 0.7026	950.214
343.09 K, x2 = 0.8936	966.519
343.13 K, x2 = 0.2017	872.529
352.14 K, x2 = 0.7687	951.742
352.69 K, x2 = 0	839.921
352.71 K, x2 = 0.5026	907.894
352.83 K, x2 = 0.301	876.2
352.9 K, x2 = 0.8936	959.494
353.02 K, x2 = 0.1028	850.773
353.03 K, x2 = 0.2017	862.815
353.34 K, x2 = 0.3967	889.949
353.48 K, x2 = 0.7026	940.524

From the NIST ThermoML archive (doi:10.1021/je8001199)
